Data on 6 molecules can be found in US9499550B2 (BRISTOL-MYERS SQUIBB COMPANY, priority 2012, dated 2016).

Assay [1] deals with HCV genotype 1a (H77 strain) replicon in HUH-7 cells. The experiment in a line: HCV replicon luciferase reporter assay, genotype 1a. In kind it is cell-based. The settings on record: Hepatitis C virus, Huh-7, 72 h, HCV genotype 1a replicon luciferase, 3 days incubation, read-out: LE_1a (EC50, range). Summed up: (§1)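 Replicon inhibition for both genotypes was measured as Renilla luciferase signal (EnduRen, 7.5 μM final, 2 h) after 3-day, 37° C exposure of replicon-bearing HUH-7 cells in 4% FCS DMEM, 0.5% DMSO. The 1b construct carries S1179I; the 1a H77 construct carries P1496L and S2204I. Twenty-point, 3-fold dilutions were fitted four-parametrically for EC50, and CC50 was taken from multiplexed Cell Titer-Blue.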
(Replicon systems follow genome replication, usually without infectious particles.)

The test system of assay [2] is HCV genotype 1b (Con1) replicon in HUH-7 cells. Put plainly: HCV replicon luciferase reporter assay, genotype 1b. Format: cell-based. The note with it: Hepatitis C virus, Huh-7, 72 h, HCV genotype 1b replicon luciferase, 3 days incubation, read-out: LE_1b (EC50, range). An outline of the steps:
as §1

Each structure is given as a SMILES string. A value given as a limit tells only on which side of the number the result lay.

On to `CCOc1nnc(O[C@@H]2C[C@H]3C(=O)N[C@]4(C(=O)NS(=O)(=O)C5CC5)C[C@H]4/C=C\CC[C@H](C)C[C@@H](C)[C@H](NC(=O)OC(C)(C)C)C(=O)N3C2)c2ccccc12` [Compound 5034, tert-butyl ((2R,6S,7R,9S,13aS,14aR,16aS,Z)-14a-((cyclopropylsulfonyl)carbamoyl)-2-((4-ethoxyphthalazin-1-yl)oxy)-7,9-dimethyl-5,16-dioxo-1,2,3,5,6,7,8,9,10,11,13a,14,14a,15,16,16a-hexadecahydrocyclopropa[e]pyrrolo[1,2-a][1,4]diazacyclopentadecin-6-yl)carbamate], for which the EC50 in assay [1] and in assay [2] was 4.82 to 103 nM each time.

In the case of `CCOc1nnc(O[C@@H]2C[C@H]3C(=O)N[C@]4(C(=O)NS(=O)(=O)C5CC5)C[C@H]4/C=C\CC[C@@H](C)C[C@@H](C)[C@H](NC(=O)OC(C)(C)C)C(=O)N3C2)c2ccccc12` [Compound 5035, tert-butyl ((2R,6S,7R,9R,13aS,14aR,16aS,Z)-14a-((cyclopropylsulfonyl)carbamoyl)-2-((4-ethoxyphthalazin-1-yl)oxy)-7,9-dimethyl-5,16-dioxo-1,2,3,5,6,7,8,9,10,11,13a,14,14a,15,16,16a-hexadecahydrocyclopropa[e]pyrrolo[1,2-a][1,4]diazacyclopentadecin-6-yl)carbamate], the concentration for a half-maximal effect (EC50) in assay [1] and in assay [2] was < 5.46 nM throughout.

For `CCOc1nnc(O[C@@H]2C[C@H]3C(=O)N[C@]4(C(=O)NS(=O)(=O)C5CC5)C[C@H]4/C=C\CC[C@H](C)C[C@@H](C)[C@H](NC(=O)OC(C)(C)C(F)(F)F)C(=O)N3C2)c2ccccc12` [Compound 5036, 1,1,1-trifluoro-2-methylpropan-2-yl((2R,6S,7R,9S,13aS,14aR,16aS,Z)-14a-((cyclopropylsulfonyl)carbamoyl)-2-((4-ethoxyphthalazin-1-yl)oxy)-7,9-dimethyl-5,16-dioxo-1,2,3,5,6,7,8,9,10,11,13a,14,14a,15,16,16a-hexadecahydrocyclopropa[e]pyrrolo[1,2-a][1,4]diazacyclopentadecin-6-yl)carbamate], the EC50 in assay [1] and in assay [2] was 4.82 to 103 nM in each case.

In the case of `CCOc1nnc(O[C@@H]2C[C@H]3C(=O)N[C@]4(C(=O)NS(=O)(=O)C5CC5)C[C@H]4/C=C\CC[C@@H](C)C[C@@H](C)[C@H](NC(=O)OC(C)(C)C(F)(F)F)C(=O)N3C2)c2ccccc12` [Compound 5037, 1,1,1-trifluoro-2-methylpropan-2-yl((2R,6S,7R,9R,13aS,14aR,16aS,Z)-14a-((cyclopropylsulfonyl)carbamoyl)-2-((4-ethoxyphthalazin-1-yl)oxy)-7,9-dimethyl-5,16-dioxo-1,2,3,5,6,7,8,9,10,11,13a,14,14a,15,16,16a-hexadecahydrocyclopropa[e]pyrrolo[1,2-a][1,4]diazacyclopentadecin-6-yl)carbamate], the EC50 in assay [1] and in assay [2] was < 5.46 nM in each case.

Turning to `[2H]C([2H])([2H])C(OC(=O)N[C@@H]1C(=O)N2C[C@H](Oc3nnc(OCC)c4ccccc34)C[C@H]2C(=O)N[C@]2(C(=O)NS(=O)(=O)C3CC3)C[C@H]2/C=C\CC[C@H](C)C[C@H]1C)(C([2H])([2H])[2H])C(F)(F)F` [Compound 5038], the half-maximal effective concentration (EC50) in assay [1] and in assay [2] was 4.82 to 103 nM each time.

In the case of `[2H]C([2H])([2H])C(OC(=O)N[C@@H]1C(=O)N2C[C@H](Oc3nnc(OCC)c4ccccc34)C[C@H]2C(=O)N[C@]2(C(=O)NS(=O)(=O)C3CC3)C[C@H]2/C=C\CC[C@@H](C)C[C@H]1C)(C([2H])([2H])[2H])C(F)(F)F` [Compound 5039], the EC50 in assay [1] and in assay [2] was < 5.46 nM throughout.
